Measurements: ChEMBL document CHEMBL1201862, “PubChem BioAssay data set” (2004)
Counter-ions that a name gives are not always drawn. The source made the active and inactive calls.

Assays:
[1] = molecular target: T1, Tyrosine-protein phosphatase non-receptor type 11 (Homo sapiens, UniProt Q06124); assay: SHP2 phosphatase inhibition, dose response, selectivity assay for STEP inhibitor project, biochemical (AID 602367); assay type: functional; conditions: read-out: IC50_Mean
T1 sequence (Q06124 whole entry): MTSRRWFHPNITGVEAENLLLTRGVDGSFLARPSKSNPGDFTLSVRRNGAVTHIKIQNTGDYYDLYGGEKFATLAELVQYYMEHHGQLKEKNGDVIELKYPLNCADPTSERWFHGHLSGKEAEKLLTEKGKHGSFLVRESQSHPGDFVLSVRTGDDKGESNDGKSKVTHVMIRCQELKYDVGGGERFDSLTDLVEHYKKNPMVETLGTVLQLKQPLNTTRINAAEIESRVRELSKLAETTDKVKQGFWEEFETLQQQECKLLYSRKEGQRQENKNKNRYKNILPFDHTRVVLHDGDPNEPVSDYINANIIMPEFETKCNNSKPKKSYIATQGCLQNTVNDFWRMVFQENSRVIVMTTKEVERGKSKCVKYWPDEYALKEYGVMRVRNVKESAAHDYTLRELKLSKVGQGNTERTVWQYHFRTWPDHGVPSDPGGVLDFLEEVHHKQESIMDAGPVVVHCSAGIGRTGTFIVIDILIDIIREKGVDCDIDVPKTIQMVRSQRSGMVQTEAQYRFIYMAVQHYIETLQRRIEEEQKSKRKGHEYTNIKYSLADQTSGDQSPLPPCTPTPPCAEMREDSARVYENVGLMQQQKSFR

[2] = molecular target: T2, Tyrosine-protein phosphatase non-receptor type 5 (Homo sapiens, UniProt P54829); assay: STEP phosphatase inhibitors, confirmation, biochemical, fluorescence intensity, uHTS hits (AID 602372); assay type: functional; conditions: read-out: IC50_Mean
T2 sequence (P54829 whole entry): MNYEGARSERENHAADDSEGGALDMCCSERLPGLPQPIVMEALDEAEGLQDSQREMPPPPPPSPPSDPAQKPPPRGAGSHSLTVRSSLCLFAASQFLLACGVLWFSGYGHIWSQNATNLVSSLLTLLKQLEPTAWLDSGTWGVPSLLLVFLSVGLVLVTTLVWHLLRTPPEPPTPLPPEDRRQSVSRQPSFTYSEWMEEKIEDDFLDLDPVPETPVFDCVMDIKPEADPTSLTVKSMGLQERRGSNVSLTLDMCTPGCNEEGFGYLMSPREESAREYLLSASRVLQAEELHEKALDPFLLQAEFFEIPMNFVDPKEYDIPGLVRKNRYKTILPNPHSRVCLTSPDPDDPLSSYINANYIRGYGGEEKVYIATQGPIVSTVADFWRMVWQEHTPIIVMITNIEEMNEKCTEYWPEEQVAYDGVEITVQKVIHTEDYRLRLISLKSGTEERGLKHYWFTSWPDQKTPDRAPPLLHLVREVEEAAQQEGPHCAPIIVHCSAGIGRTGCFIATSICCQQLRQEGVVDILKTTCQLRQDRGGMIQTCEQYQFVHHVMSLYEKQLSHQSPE

[3] = molecular target: Dual specificity protein phosphatase 3 (Homo sapiens, UniProt P51452); assay: VHR phosphatase inhibition, dose response, selectivity assay for STEP inhibitor project, biochemical (AID 602374); assay type: functional; conditions: read-out: IC50_Mean
[4] = molecular target: T3, Heat shock factor protein 1 (Mus musculus, UniProt P38532); assay: inhibition of MG132-induced HSE-luciferase signal, confirmation, cell-based, NIH3T3, luminescence, dose retest (AID 2382); assay type: functional;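 note: NIH3T3 fibroblasts with HSF1-driven luciferase reporter stressed by proteasome inhibitor MG132; luminescence from HSF1-driven luciferase expression after 8 hours of MG132 stress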
T3 sequence (P38532 whole entry): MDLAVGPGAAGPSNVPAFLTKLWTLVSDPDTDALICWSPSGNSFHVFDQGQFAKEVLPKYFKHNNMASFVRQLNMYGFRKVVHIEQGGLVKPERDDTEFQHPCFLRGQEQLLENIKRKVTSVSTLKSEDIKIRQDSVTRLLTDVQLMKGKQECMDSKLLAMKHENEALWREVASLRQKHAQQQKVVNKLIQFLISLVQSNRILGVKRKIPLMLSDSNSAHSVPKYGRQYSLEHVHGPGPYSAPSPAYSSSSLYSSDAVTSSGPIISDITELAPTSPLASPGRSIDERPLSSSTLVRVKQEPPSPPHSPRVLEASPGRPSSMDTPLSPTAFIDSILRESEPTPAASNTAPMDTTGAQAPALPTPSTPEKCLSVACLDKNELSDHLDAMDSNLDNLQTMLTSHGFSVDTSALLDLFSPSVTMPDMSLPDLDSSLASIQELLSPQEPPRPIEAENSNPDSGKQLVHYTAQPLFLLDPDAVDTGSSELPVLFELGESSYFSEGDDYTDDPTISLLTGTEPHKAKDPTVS

[5] = cells; assay type: functional, cell-based
[6] = molecular target: T4, Trace amine-associated receptor 1 (Homo sapiens, UniProt Q96RJ0); assay: Fluorescence-based cell-based high throughput dose response assay to identify agonists of the human trace amine associated receptor 1 (TAAR1).; assay type: functional
T4 sequence (Q96RJ0 whole entry): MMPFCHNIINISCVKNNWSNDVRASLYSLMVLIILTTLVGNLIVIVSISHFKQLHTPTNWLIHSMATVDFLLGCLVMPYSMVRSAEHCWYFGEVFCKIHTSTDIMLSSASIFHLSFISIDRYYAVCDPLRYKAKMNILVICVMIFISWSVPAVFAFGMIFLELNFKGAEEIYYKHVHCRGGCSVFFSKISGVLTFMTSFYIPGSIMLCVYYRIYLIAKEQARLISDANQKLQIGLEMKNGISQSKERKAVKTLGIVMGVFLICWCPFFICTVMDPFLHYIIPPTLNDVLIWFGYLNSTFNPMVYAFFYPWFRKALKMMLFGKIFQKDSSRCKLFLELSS

[7] = molecular target: T4, Trace amine-associated receptor 1; assay: Counterscreen for agonists of the human trace amine associated receptor 1 (hTAAR1): Fluorescence-based cell-based high throughput dose response assay to identify hTAAR1 agonist that also desensitize TAAR1 receptor response.; assay type: functional
[8] = cells; assay type: functional, cell-based; remark: listed apart in the source
[9] = molecular target: T5, Small ubiquitin-related modifier 1 (Homo sapiens, UniProt P63165); assay: inhibitors of SUMO1 peptide binding, dose response, biochemical, fluorescence polarization, uHTS hits (AID 624382); assay type: functional; conditions: read-out: IC50_Mean
[10] = molecular target: T5, Small ubiquitin-related modifier 1; assay: inhibitors of SUMO1 partner interactions, dose response, biochemical, FRET (AID 624383); assay type: functional; conditions: read-out: IC50_Mean
[11] = molecular target: T6, Fatty acid synthase (Homo sapiens, UniProt P49327); assay: FAS thioesterase domain inhibitors, dose response, biochemical, endpoint fluorescence intensity, uHTS hits (AID 624327); assay type: functional;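 note: fluorescence from hydrolysis of an O-methyl fluorescein acyl ester substrate by the enzyme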
[12] = molecular target: T6, Fatty acid synthase; assay: FAS thioesterase domain inhibitors, dose response, biochemical, kinetic fluorescence intensity (AID 624326); assay type: functional;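 note: rate of fluorescence rise from hydrolysis of a fluorogenic O-methyl fluorescein ester substrate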
[13] = molecular target: T7, Protein skinhead-1 (Caenorhabditis elegans, UniProt P34707); assay type: functional
T7 sequence (P34707 whole entry): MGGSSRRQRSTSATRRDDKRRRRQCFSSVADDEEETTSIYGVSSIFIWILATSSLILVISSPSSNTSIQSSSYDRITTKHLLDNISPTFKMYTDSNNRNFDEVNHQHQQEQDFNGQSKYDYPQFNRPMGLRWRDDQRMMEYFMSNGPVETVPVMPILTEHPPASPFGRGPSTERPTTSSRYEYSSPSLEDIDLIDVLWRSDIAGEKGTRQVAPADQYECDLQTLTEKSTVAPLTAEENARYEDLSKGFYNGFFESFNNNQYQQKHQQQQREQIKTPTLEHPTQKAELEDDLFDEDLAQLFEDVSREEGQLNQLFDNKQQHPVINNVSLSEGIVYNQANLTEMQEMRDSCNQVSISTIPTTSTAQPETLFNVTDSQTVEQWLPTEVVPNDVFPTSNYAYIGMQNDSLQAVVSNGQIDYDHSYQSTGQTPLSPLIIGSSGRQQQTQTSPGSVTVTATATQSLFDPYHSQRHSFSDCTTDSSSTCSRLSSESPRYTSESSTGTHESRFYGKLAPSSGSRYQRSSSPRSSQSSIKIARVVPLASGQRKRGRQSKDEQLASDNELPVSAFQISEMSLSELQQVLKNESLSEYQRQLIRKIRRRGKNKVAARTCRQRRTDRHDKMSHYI

[14] = CEM21 lymphoblast cell cytotoxicity, dose response, cytotoxicity control for viral fusion inhibitor project, CellTiter-Glo luminescence, cherry-picked (AID 652042); assay type: functional, cell-based;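 note: potency for signal decrease meaning cytotoxicity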
[15] = molecular target: Cytochrome P450 2C9 (Homo sapiens, UniProt P11712)
[16] = miR-122 activators in hepatoma reporter cells, dose response, cell-based, Huh7 psiCHECK-miR122, Renilla luciferase, cherry-picked (AID 651956); assay type: functional;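 note: huh7 hepatoma cells stably carrying a psiCHECK-2 miR-122 sensor plasmid; renilla luciferase signal reporting endogenous miR-122 activity after 48 h compound exposure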

T6 sequence (P49327 whole entry, the tested form may be a part): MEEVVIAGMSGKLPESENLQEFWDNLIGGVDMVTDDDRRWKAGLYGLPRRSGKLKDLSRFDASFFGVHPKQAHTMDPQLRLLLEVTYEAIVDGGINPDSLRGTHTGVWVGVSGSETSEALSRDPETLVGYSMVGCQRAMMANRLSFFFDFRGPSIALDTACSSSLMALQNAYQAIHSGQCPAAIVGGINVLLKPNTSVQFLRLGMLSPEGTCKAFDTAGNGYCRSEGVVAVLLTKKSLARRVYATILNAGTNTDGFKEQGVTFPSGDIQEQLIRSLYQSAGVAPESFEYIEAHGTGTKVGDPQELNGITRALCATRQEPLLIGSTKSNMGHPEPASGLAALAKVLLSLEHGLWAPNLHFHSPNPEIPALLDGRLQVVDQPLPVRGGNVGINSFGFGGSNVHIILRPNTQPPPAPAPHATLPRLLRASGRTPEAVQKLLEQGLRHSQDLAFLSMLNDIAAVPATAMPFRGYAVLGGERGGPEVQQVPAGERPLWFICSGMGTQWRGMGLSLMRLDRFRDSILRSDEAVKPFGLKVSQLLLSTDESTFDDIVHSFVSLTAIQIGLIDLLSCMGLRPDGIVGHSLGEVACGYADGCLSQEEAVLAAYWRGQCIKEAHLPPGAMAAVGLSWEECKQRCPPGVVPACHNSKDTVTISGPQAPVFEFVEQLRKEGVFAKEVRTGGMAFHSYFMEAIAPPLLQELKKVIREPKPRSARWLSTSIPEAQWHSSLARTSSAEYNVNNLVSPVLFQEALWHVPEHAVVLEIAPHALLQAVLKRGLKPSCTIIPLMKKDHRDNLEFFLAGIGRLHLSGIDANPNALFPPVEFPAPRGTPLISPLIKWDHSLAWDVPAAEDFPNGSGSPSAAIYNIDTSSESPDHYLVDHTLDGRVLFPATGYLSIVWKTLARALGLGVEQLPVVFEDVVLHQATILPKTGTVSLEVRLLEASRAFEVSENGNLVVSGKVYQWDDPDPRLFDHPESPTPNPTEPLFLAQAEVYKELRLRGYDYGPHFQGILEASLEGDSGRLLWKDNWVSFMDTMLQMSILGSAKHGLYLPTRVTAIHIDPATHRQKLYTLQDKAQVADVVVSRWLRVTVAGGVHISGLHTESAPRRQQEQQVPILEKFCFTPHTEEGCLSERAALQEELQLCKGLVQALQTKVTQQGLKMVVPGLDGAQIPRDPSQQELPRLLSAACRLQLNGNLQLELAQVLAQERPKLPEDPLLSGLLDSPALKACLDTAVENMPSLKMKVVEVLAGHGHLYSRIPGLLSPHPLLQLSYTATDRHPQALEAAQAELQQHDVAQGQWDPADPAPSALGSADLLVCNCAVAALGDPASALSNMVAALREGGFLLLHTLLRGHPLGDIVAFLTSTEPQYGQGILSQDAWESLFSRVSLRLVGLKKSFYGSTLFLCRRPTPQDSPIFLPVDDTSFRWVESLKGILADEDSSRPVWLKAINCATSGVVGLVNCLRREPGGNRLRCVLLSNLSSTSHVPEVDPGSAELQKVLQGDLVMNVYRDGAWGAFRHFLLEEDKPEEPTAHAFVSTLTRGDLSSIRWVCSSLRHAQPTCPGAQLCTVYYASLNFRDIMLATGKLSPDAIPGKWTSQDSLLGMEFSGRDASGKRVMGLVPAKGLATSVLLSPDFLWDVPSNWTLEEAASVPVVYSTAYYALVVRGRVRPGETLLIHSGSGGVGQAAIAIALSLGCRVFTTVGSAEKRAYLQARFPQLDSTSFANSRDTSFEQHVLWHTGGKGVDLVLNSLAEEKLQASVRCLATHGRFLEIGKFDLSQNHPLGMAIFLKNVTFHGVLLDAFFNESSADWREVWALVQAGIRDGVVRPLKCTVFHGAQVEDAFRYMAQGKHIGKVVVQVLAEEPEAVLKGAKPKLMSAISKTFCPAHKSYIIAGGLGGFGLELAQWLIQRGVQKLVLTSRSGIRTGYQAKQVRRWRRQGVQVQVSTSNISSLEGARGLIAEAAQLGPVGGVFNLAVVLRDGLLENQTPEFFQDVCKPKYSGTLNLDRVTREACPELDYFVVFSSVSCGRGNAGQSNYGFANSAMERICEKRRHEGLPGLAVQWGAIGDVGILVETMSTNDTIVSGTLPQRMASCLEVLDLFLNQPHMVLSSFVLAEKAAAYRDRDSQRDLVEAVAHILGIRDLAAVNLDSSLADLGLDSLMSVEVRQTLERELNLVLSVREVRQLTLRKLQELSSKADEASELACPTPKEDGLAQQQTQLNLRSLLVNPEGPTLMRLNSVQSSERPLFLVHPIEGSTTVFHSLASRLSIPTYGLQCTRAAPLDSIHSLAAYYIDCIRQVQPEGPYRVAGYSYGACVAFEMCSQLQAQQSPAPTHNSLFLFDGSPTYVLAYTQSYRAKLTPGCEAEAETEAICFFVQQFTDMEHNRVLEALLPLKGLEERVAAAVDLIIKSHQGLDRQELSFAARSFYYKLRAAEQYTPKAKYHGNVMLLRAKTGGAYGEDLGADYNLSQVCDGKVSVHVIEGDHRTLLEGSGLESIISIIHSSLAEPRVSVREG
T5 sequence (P63165 whole entry): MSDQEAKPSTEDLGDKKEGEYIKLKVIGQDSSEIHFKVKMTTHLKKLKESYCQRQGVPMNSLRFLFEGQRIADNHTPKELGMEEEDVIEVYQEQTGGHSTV
Sequence of Dual specificity protein phosphatase 3 (P51452 whole entry): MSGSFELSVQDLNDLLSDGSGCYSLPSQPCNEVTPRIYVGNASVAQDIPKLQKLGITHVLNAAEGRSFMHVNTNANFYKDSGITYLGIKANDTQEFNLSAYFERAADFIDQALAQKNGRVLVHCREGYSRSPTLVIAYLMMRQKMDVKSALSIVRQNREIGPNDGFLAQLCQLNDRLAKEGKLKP
Sequence of Cytochrome P450 2C9 (P11712 whole entry): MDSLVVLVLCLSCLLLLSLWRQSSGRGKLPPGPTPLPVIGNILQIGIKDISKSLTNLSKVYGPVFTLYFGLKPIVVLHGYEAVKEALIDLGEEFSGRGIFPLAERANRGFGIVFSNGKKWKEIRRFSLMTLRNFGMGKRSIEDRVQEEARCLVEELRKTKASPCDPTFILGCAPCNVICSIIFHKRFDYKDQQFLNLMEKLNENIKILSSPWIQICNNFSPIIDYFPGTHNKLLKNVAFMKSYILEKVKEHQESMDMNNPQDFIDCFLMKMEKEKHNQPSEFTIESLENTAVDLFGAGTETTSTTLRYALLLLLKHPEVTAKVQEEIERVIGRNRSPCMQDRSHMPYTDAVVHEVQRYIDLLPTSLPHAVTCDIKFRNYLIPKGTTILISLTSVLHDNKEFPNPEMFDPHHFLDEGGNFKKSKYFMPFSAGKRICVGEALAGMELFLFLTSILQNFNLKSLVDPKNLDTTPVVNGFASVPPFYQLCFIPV

CCOc1ccc(C(=S)N2CCN(C)CC2)cc1
IC50 [1]: 3.9 µM (active) | IC50 [2]: 24.6 µM (inactive) | IC50 [3]: 1.42 µM (active)

N=C(N)SCc1ccccc1Cl
EC50 [4]: 121 µM (active) | IC50 [5]: > 29.9 µM (inactive) | EC50 [6]: 1.42 µM (active) | IC50 [7]: 5.21 µM (active) | EC50 [8]: > 29.9 µM (inactive)

COc1ccc(-c2cc(=O)c3c(C)cc(O)cc3o2)cc1
IC50 [9]: > 66.6 µM (inactive) | IC50 [10]: 8.68 µM (active)

CCCCCn1c(CN2CCN(c3cccc(Cl)c3)CC2)nc2c1c(=O)n(C)c(=O)n2C
IC50 [11]: 3.96 µM (active) | IC50 [12]: 4.64 µM (active)

c1ccc2c(CC3=NCCN3)cccc2c1 [NAPHAZOLINE HYDROCHLORIDE]
IC50 [5]: > 29.9 µM (inactive) | EC50 [6]: 0.14 µM (active) | IC50 [7]: 1.15 µM (active) | EC50 [8]: > 29.9 µM (inactive)

Fc1ccccc1-c1nc(-c2ccncc2)no1
IC50 [13]: 25.1 µM (active)

C=CCOc1c(Br)cc(CNc2ccc(NC(=O)C(C)C)c(OC)c2)cc1OC
AC50 [14]: 63.1 µM (active) | AC50 [15]: 0.00562 µM (inconclusive)

CC(NC(=O)Nc1cccc([N+](=O)[O-])c1)c1ccc2c(c1)OCO2 (stereo not drawn)
IC50 [11]: 2.18 µM (active) | IC50 [12]: 1.64 µM (active)

CN1C(=O)c2cc(NC(=O)Nc3cccc(Cl)c3)ccc2OC[C@H]2O[C@@H](CC(=O)NCCc3ccncc3)CC[C@H]21
AC50 [16]: 31.4 µM (active)

O=C(Nc1cc2nn(-c3ccccc3)nc2cc1Cl)c1ccco1
IC50 [13]: > 100 µM (inactive)
